Data taken from ChEMBL document CHEMBL5725292, “Substituted benzamides and methods of use thereof” (2017).
pIC50: −log10 of the molar value.

Assay: Radioligand Binding Assay: Binding of this radioligand was preformed in 5 mL borosilicate glass test tubes at room temperature. Binding was initiated by adding membranes to increasing concentrations of [3H]compound in 100 mMNaCl, 20 mMTrisHCl, pH 7.4 buffer containing 0.01% w/v bovine serum albumin (BSA) for 18 h. Non-specific binding was determined in the presence of 1 uM unlabelled compound. …
Set-up: species or system Homo sapiens
Description: Radioligand Binding Assay: Binding of this radioligand was preformed in 5 mL borosilicate glass test tubes at room temperature. […] Non-specific binding was determined in the presence of 1 uM unlabelled compound. […] [3H]compound bound to filters was quantified by liquid scintillation counting.

Structure (SMILES)	pIC50
O=C(NS(O)(O)C1CC1)c1cc(C2CC2)c(CN2CCC(Oc3ccc(F)cc3Cl)CC2)cc1F	7.85
COC[C@H](c1cc(Cl)cc(Cl)c1)N1CCC[C@@H](Oc2cc(F)c(C(=O)NS(C)(=O)=O)cc2C2CC2)C1	8.22
